Series [1] is described as follows: Hepatocyte intrinsic clearance and metabolite profile. As to conditions: human. It is filed as in vitro ADME, human. The protocol:
Fexinidazole was incubated with cryopreserved hepatocytes from male CD-1 mice, male Sprague Dawley rats, male beagle dogs, male cynomolgus monkeys, and from pooled white or African-American human donor samples (purchased commercially), at concentrations of 1 µM and 10 µM. […] The incubated samples were analyzed by LC-MS after extraction into acetonitrile.
Fexinidazole sulfoxide, lot 1106-I-0170, 99.3% purity, and fexinidazole sulfone, lot 1106-I-0171, 99.9% purity, were provided by the Sponsor.
Cryopreserved hepatocytes of five single donors, lots EHI, REL, KSE […]
ZIJ and MRS, were purchased from In Vitro Technologies Inc (Baltimore, Maryland, USA).
The certificates of analysis are reported in Appendix 1.
Reagents and solvents were of analytical grade and obtained from Sigma-Aldrich (St. Louis, […]
7.5. In Vitro Incubations
On the day of the experiment a 10 mM stock solution of fexinidazole in DMSO was prepared and, within 3 hours, aliquots of this freshly prepared solution, after suitable dilution, were added to the incubation matrix, to reach fexinidazole final concentrations of 1 and 10 µM. The final percentage of DMSO was 0.01% in the incubation samples for the […]
The cryopreserved hepatocytes were thawed according to the supplier’s procedure and the number of viable cells was determined using the Trypan Blue exclusion method. Viabilities were 92% for lot EHI, 89% for lot REL, 82% for lot KSE, 86% for lot ZIJ and 86% for lot MRS in the intrinsic clearance study. In the metabolite profile study viabilities were 91% for lot EHI, 90% for lot REL, 85% for lot KSE, 84% for lot ZIJ and 87% for lot MRS.
Afterwards, the same amount of viable cells for each donor were pooled and used for the incubations of fexinidazole.
7.5.1. Intrinsic Clearance Study […]
µM with pooled human hepatocytes (1 million cells/mL) in a final incubation volume of 1 mL Leibovitz L-15 medium, at 37°C. Incubations were performed in duplicate in a 48-well plate under shaking. Sampling was performed using an automatic liquid handling system (Multiprobe II EX, Packard). At 0, 1, 5, 10, 15, 20, 30, 60 and 120 minutes, 50 µL aliquots of the incubates were taken, then 80 µL of ice-cold acetonitrile and 20 µL of 1 µM warfarin in acetonitrile (internal standard) were added, and samples centrifuged at 2000 rpm for 20 min. The supernatant was analyzed by LC-MS/MS. […]
The chemical stability of fexinidazole was checked by incubating the compound at 37°C in the medium alone at t = 0 and 120 minutes.
For the determination of phase I and phase II activities of hepatocytes, 7-ethoxycoumarin (7-ETC) 1 µM, and 7-hydroxycoumarin (7-HC) 30 µM were used as positive controls and incubated under the same conditions as fexinidazole. Aliquots of incubates were taken at 0, 1, 5, 10, 15, 20, 30, 60 and 120 minutes and processed as fexinidazole samples.
7.5.2. Metabolite Profile Study
For metabolite profiling, fexinidazole was incubated at a concentration of 10 µM with pooled human hepatocytes (1 million cells/mL) in a final incubation volume of 2 mL Leibovitz L-15 medium, at 37°C. Aliquots of the incubation samples were taken at t = 0, 30 and 120 minutes; the metabolism was stopped by the addition of an equal volume of cold acetonitrile and the samples centrifuged at 1100 rpm for 20 min. The supernatant was stored at -20°C until analysis. Control incubations were performed with the compound in the medium alone for 120 minutes.
7.6. Analysis of the Samples of Intrinsic Clearance Study
The analysis of the samples for intrinsic clearance determination was performed by an LC-MS/MS method, using the following conditions:
HPLC Equipment and Conditions
HPLC system 1100 binary pump (Agilent, Palo Alto, USA)
Autosampler 2777 (Waters)
Analytical column Guard Column SB-C8 4.6 x 12.5 mm, 5 µm (Zorbax)
Column temperature ambient
Mobile phase A 10 mM ammonium formate pH 4.0: acetonitrile (95:5, v:v)
Mobile phase B 10 mM ammonium formate pH 4.0: acetonitrile (5:95, v:v) […]
Gradient conditions Step Total time (min) flow (µL/min) %A % B […]

The subject of the next series is African trypanosomes. As to the kind of experiment: In vitro activity against African trypanosomes (summary). In kind it is cell-based. The conditions noted are these: Trypanosoma brucei, laboratory strains and recent clinical isolates. On the procedure:
Parasites were cultured with or without the test article at a concentration of 3×10^4/mL in Minimal Essential Medium, according to Baltz et al., with the following modifications: 0.2 mM 2-mercaptoethanol, 1 mM Na-pyruvate, 0.5 mM hypoxanthine and 15% heat inactivated horse serum at 37°C in 5% CO2 in 96-well microtitre plates for 72 h. 10 µL of Alamar Blue was added for the final 3 h to determine viability. The assay was assessed by reading the fluorescence in each well at an excitation wavelength of 536 nm and at an emission wavelength of 588 nm. The IC50 values were calculated from the sigmoidal inhibition curves. For cytotoxicity, 4×10^4/mL L-6 rat skeletal myoblast cells were used, and incubations and assessments carried out as above.

In brackets after ≈: the same amount, converted by molar mass.

For the compound `CSc1ccc(OCc2ncc([N+](=O)[O-])n2C)cc1` [Fexinidazole, 1-methyl-2-((p-(methylthio)phenoxy)methyl)-5-nitroimidazole], in series [1], the half-life at 1 µM stood at 6.5 min. Besides, in series [1] (read-out: CLint in vitro), the CLint scaled at 1 µM is 257 mL/min/kg and the hepatocyte CLint at 1 µM worked out at 107 µL/min/1e6 cells. Further, the IC50 in the series on African trypanosomes was 0.1 to 0.8 µg/mL (≈ 0.358 to 2.86 µM).

A word on the half-life: it is how long it takes for the measured level to halve. As usually defined, the IC50 is the midpoint of a concentration-inhibition curve. A low value points to greater potency.

The values are drawn from paper PMC3006138, “Fexinidazole – A New Oral Nitroimidazole Drug Candidate Entering Clinical Development for the Treatment of Sleeping Sickness” (PLoS Neglected Tropical Diseases, 2010).
